Experimental data as given in PMC9853328, “Potent Platinum(IV) Prodrugs That Incorporate a Biotin Moiety to Selectively Target Cancer Cells” (Pharmaceutics, 2022).
Several values for one entry are separate records, joined by “and”; a condition that tells them apart may be missing. Identical values can stand only once.

Assays:
[1] = tested on: panel of cancer cell lines; experiment: MTT cytotoxicity averaged across the panel of cancer cell lines; type: cell-based
U87 glioblastoma cells = experiment: MTT in vitro cytotoxicity assay, U87; type: cell-based; details: 72 h drug exposure, n = 3, read-out: GI50 ± SEM, U87
Description: (§1) The in vitro cytotoxicity assays were undertaken at Calvary Mater Hospital, Waratah, NSW, Australia, following a method previously published in the literature. A stock solution for each compound was prepared in DMSO (30 mM) and stored at −20 °C. The cell lines used in the study include HT29 colon, U87 glioblastoma, MCF-7 breast, A2780 ovarian, H460 lung, A431 skin, Du145 prostate, BE2-C neuroblastoma, SJ-G2 glioblastoma, MIA pancreas, and cisplatin-resistant ADDP ovarian (subclone of A2780) cancer cells, as well as the non-cancerous-derived MCF10A breast cell line. The cancer cell lines were cultured in a humidified atmosphere 5% CO2 at 37 °C and maintained in Dulbecco’s modified Eagle’s medium (Trace Biosciences, Sydney, Australia), supplemented with 10% foetal bovine serum, sodium bicarbonate (10 mM), penicillin (100 IU/mL), streptomycin (100 µg/mL), and glutamine (4 mM). The non-cancerous MCF10A cell line was maintained in DMEM:F12 (1:1) cell culture media, with 5% heat inactivated horse serum, supplemented with penicillin (50 IU/mL), streptomycin (50 µg/mL), glutamine (2 mM), HEPES (20 mM), epidermal growth factor (20 ng/mL), hydrocortisone (500 ng/mL), cholera toxin (100 ng/mL), and insulin (10 µg/mL). Cells were plated in duplicate in medium (100 µL) at a density of 2500–4000 cells per well in 96-well plates. On day 0, (24 h after plating) when the cells were in logarithmic growth, medium (100 μL) with or without the test agent was added to each well. The growth inhibitory effects were evaluated after 72 h drug exposure, using the MTT (3-(4,5-dimethylthiazol-2-yl)-2,5-diphenyltetrazolium bromide) assay, with the absorbance read at 540 nm. An eight-point dose–response curve was produced, which was used to determine the concentration at which growth was inhibited by 50% (GI50). This calculation was based on the difference between the optical density values on day 0 and those at the end of drug exposure. […] Experiments were conducted on three separate occasions and GI50 values were reported as the mean and standard error of the mean.

[2] = Reduction study with ascorbic acid via 1H NMR; type: physicochemical; details: 5 mM complex in D2O with 10X PBS, ascorbic acid 5 mM, 37 °C, four experiments
Description: To confirm that the reduction of these prodrugs occurs and the axially bound biotin ligands are released from the cytotoxic platinum(II) core, reduction studies were undertaken using ^1H NMR experiments for 3. The complex was prepared in 5 mM D2O with 10X PBS. Ascorbic acid (5 mM) was added, and the reduction was monitored at 37 °C by ^1H NMR experiments. Over time, the resonances corresponding to the platinum(IV) species decreased, while new resonances corresponding to the platinum(II) species increased (Figure 7).

SJ-G2 glioblastoma cells = experiment: MTT in vitro cytotoxicity assay, SJ-G2; type: cell-based; details: 72 h drug exposure, n = 3, read-out: GI50 ± SEM, SJ-G2
Description: as §1

[3] = tested on: MCF-7 breast cancer cells; experiment: MTT in vitro cytotoxicity assay, MCF-7; type: cell-based; details: MTT, 72 h drug exposure, n = 3; read-out: GI50 ± SEM, MCF-7
[4] = tested on: MCF-7 (breast cancer) cells; experiment: Cellular platinum uptake by ICP-MS, MCF-7; type: cell-based; details: 0.1 µM, 4 h, ICP-MS
Description: (§2) Cellular uptake studies were carried out in MCF-7 (breast cancer) and MCF10A (healthy breast) cell lines. Reported in Table S2 are the numbers of cells per well that were seeded onto 12-well plates for each replicate and cell line. After incubating overnight at 37 °C, the cell culture medium was replaced with fresh media containing the test compounds at concentrations of 1.0 and 0.1 µM. After incubating for 4 h, the medium was removed, the cells were washed with PBS twice, and then incubated with trypsin solution until the cells dissociated from the plate. The harvested cells were then placed into an Eppendorf tube and PBS was added to a volume of 1 mL. Cell numbers were determined using trypan blue staining. Cell pellets were obtained after centrifugation and the cells were dispersed in 50 µL of MilliQ™ water and stored immediately at −20 °C until platinum analysis was conducted. These experiments were repeated in triplicate on three separate occasions.
(§3) Sixty-nine percent HNO3 (50 µL) was added to each sample and digested at 80 °C for 1.5 h, before being taken up to 1 mL with H2O. The platinum analysis was conducted using a PerkinElmer (Melbourne, Australia) NexION™ 300X inductively coupled plasma mass spectrometer (ICP-MS). A four-point calibration curve was produced by serial dilution of a certified platinum reference standard. The calibration was linear over the working range (R^2 > 0.9999) and the most abundant platinum isotope (m/z = 195) was monitored. The average values for three independent experiments were reported with standard deviations.

[5] = tested on: BE2-C neuroblastoma cells; experiment: MTT in vitro cytotoxicity assay, BE2-C; type: cell-based; details: 72 h drug exposure, n = 3, read-out: GI50 ± SEM, BE2-C
Description: as §1

[6] = tested on: A2780 ovarian cancer cells; experiment: MTT in vitro cytotoxicity assay, A2780; type: cell-based; details: 72 h drug exposure, n = 3, read-out: GI50 ± SEM, A2780
Description: as §1

[7] = tested on: cisplatin-resistant ADDP ovarian (subclone of A2780) cancer cells; experiment: MTT in vitro cytotoxicity assay, ADDP; type: cell-based; details: 72 h drug exposure, n = 3, read-out: GI50 ± SEM, ADDP
Description: as §1

A431 skin cancer cells = experiment: MTT in vitro cytotoxicity assay, A431; type: cell-based; details: 72 h drug exposure, n = 3, read-out: GI50 ± SEM, A431
Description: as §1

[8] = tested on: non-cancerous MCF10A breast cell line; experiment: MTT in vitro cytotoxicity assay, MCF10A; type: cell-based; details: 72 h drug exposure, n = 3, read-out: GI50 ± SEM, MCF10A
Description: as §1

[9] = tested on: MCF10A (healthy breast) cells; experiment: Cellular platinum uptake by ICP-MS, MCF10A; type: cell-based; details: 1.0 and 0.1 µM, 4 h, among complexes 1–4
Description: as §2
as §3, with “A four-point calibration curve was produced by serial dilution of a certified platinum reference standard.” left out, “The average values for three independent experiments were reported with standard deviations.” left out

[10] = tested on: MIA pancreas cancer cells; experiment: MTT in vitro cytotoxicity assay, MIA; type: cell-based; details: 72 h drug exposure, n = 3, read-out: GI50 ± SEM, MIA
Description: as §1

H460 lung cancer cells = experiment: MTT in vitro cytotoxicity assay, H460; type: cell-based; details: 72 h drug exposure, n = 3, read-out: GI50 ± SEM, H460
Description: as §1

[11] = tested on: Du145 prostate cancer cells; experiment: MTT in vitro cytotoxicity assay, Du145; type: cell-based
Description: as §1

HT29 colon cancer cells = experiment: MTT in vitro cytotoxicity assay, HT29; type: cell-based
Description: as §1

Compound: COc1cc[n+]2c3c1ccc1c(OC)cc[n+](c13)[Pt-2]21([OH])([O]C(=O)CCCC[C@@H]2SC[C@@H]3NC(=O)N[C@@H]32)[NH2+][C@H]2CCCC[C@@H]2[NH2+]1.O=[N+]([O-])[O-].O=[N+]([O-])[O-] [Complex 3, [Pt(4,7-dimethoxy-1,10-phenanthroline)(1S,2S-diaminocyclohexane)(biotin)(hydroxido)](NO3)2]
- enhanced activity compared to platinum(II) precursor across the cancer cell lines ([1]; across all cancer cell lines): ~ 1.3 fold
- fold more active than cisplatin, on average, against all cancer cells ([1]; average over cancer cell lines): 8 fold
- GI50 ([1]; calculated from the panel of cancer cell lines tested (Table S4)): 0.459 µM
- GI50 (U87 glioblastoma cells): 0.32 ± 0.06 µM
- reduction half-life [2]: ~ 30 ± 7 min and ~ 30 min
- GI50 (SJ-G2 glioblastoma cells): 0.57 ± 0.17 µM
- GI50 [3]: 0.099 ± 0.041 µM
- cellular platinum uptake in MCF-7 [4]: greatest uptake
- fold greater uptake in MCF-7 compared to MCF10A [4]: ~3 fold
- GI50 [5]: 2 ± 0.07 µM
- GI50 [6]: 0.37 ± 0.03 µM
- GI50 [7]: 0.17 ± 0.02 µM
- GI50 (A431 skin cancer cells): 0.82 ± 0.22 µM
- GI50 [8]: 0.3 ± 0.08 µM
- cellular platinum uptake in MCF10A (rank) [9]: lowest uptake levels
- GI50 [10]: 0.18 ± 0.01 µM
- GI50 (H460 lung cancer cells): 0.27 ± 0.03 µM
- GI50 ([11]; MTT, 72 h drug exposure, n = 3, read-out: GI50 ± SEM, Du145): 0.12 ± 0.04 µM
- number-fold potency against cisplatin, Du145 prostate ([11]; ratio of GI50 values, 72 h): 10 fold
- GI50 (HT29 colon cancer cells; MTT, 72 h drug exposure, n = 3, read-out: GI50 ± SEM, HT29): 0.13 ± 0.05 µM
- number-fold potency against cisplatin, HT29 colon (HT29 colon cancer cells; ratio of GI50 values, 72 h): 87 fold
